The values that follow are results of earlier work, collected in patent US20140161813A1, “METHODS FOR THE DIAGNOSIS, TREATMENT AND MONITORING OF CANCER” (priority 2012, published 2014).

Series [1] deals with human tumor 60 cell line screen. Conditions: colon, ovarian and breast carcinomas and central nervous system tumors.
Series [2] has as its system spontaneous tumors in dogs (thyroid carcinoma, malignant peripheral nerve sheath tumor, anal gland adenocarcinoma, spinal meningioma).

Regarding nitrosylcobalamin [NO-Cbl], the “antigrowth effects, tumor types most responsive” value in series [1] was “colon, ovarian and breast carcinomas as well as central nervous system tumors were most responsive”. The “systemic or local toxicity” value in series [2] (case study in dogs with spontaneous tumors) was “no evidence of systemic or local toxicity”. Besides, the “dogs in which the tumor was completely eliminated” value in series [2] (extended follow-up, daily NO-Cbl treatment ranging in duration from 6 to 15 months) was 3 of 4. Besides, the “decrease in tumor size” value in series [2] (remaining 1 of 4 dogs, daily NO-Cbl treatment over the course of 6 months) was 77%.
